This is an account of results in paper PMC12396409, “Screening and hit evaluation of a microbial metabolite library against the pathogenic Plasmodium falciparum and Toxoplasma gondii parasites” (International Journal for Parasitology: Drugs and Drug …, 2025).

Test [1] has as its system P. falciparum 3D7 parasites. Description: P. falciparum growth inhibition assay, 1-cycle (72 h treatment), SYBR DNA staining (library screen at 2 μg/mL and dose-response). It counts as cell-based, Plasmodium falciparum. The note with it: for activity at 2 µg/mL: Plasmodium falciparum.
The test system of test [2] is P. falciparum 3D7 parasites. Description: P. falciparum growth inhibition assay, 2-cycle (120 h treatment), delayed-death screen and dose-response. The class given is cell-based, Plasmodium falciparum. The note with it: for activity at 2 µg/mL: Plasmodium falciparum.
Test [3] relates to T. gondii RH strain (RH-Tub-eYFP) tachyzoites. Description: microbe, parasite or virus in culture. The note with it: 72 h; for percent parasite growth at 2 µg/mL: Toxoplasma gondii. It counts as cell-based, Toxoplasma gondii.
Where [4] appears, read: P. falciparum 3D7, 72 h, library screen at 2 μg/mL, % growth, replicate 1.
Setting [5] is: P. falciparum 3D7, 72 h, library screen at 2 μg/mL, % growth, replicate 2.
[6] abbreviates: P. falciparum 3D7, 120 h, library screen at 2 μg/mL, % growth, replicate 1.
[7] abbreviates: P. falciparum 3D7, 120 h, library screen at 2 μg/mL, % growth, replicate 2.
Setting [8] is: T. gondii RH, library screen at 2 μg/mL, % growth, replicate 1.
The mark [9] stands for this setting: T. gondii RH, library screen at 2 μg/mL, % growth, replicate 2.
The mark [10] stands for this setting: T. gondii, screen at 2 μg/mL, replicate 1, read-out: Tg_72h_%Growth_Rep1.
The mark [11] stands for this setting: T. gondii, screen at 2 μg/mL, replicate 2, read-out: Tg_72h_%Growth_Rep2.

Read-outs that look alike come from different tables or passages of the source.

As for `CCC(C)C1OC2(CCC1C)CC1CC(CC=C(C)C(OC3CC(OC)C(OC4CC(OC)C(O)C(C)O4)C(C)O3)C(C)C=CC=C3COC4C(O)C(C)=CC(C(=O)O1)C34O)O2` (stereo not drawn) [BIA-I1119], in test [1] (setting [4]), the Pf_72h_%Growth_Rep1 is 86.44%. Also, the Pf_72h_%Growth_Rep2 in test [1] (setting [5]) stood at 71.84%. In test [2] (setting [6]), this molecule returned a Pf_120h_%Growth_Rep1 of 82.92%. Moreover, in test [2] (setting [7]), the Pf_120h_%Growth_Rep2 worked out at 106.39%. The Tg_72h_%Growth_Rep1 in test [3] (setting [8]) is listed as 98.36%. This molecule returned a Tg_72h_%Growth_Rep2 in test [3] (setting [9]) of 101.63%.
Regarding `CCCCCCCCCC(=O)N[C@@H](Cc1c[nH]c2ccccc12)C(=O)N[C@H](CC(N)=O)C(=O)N[C@@H](CC(=O)O)C(=O)N[C@@H]1C(=O)NCC(=O)N[C@@H](CCCN)C(=O)N[C@@H](CC(=O)O)C(=O)N[C@H](C)C(=O)N[C@@H](CC(=O)O)C(=O)NCC(=O)N[C@H](CO)C(=O)N[C@@H]([C@H](C)CC(=O)O)C(=O)N[C@@H](CC(=O)c2ccccc2N)C(=O)O[C@@H]1C` [Daptomycin], the activity at 2 µg/mL is 88.5% in test [1] (3D7, P. falciparum, 72 h, screen at 2 μg/mL, replicate 1, read-out: Pf_72h_%Growth_Rep1); 114% in test [1] (3D7, P. falciparum, 72 h, screen at 2 μg/mL, replicate 2, read-out: Pf_72h_%Growth_Rep2); 90.7% in test [2] (3D7, P. falciparum, 120 h, screen at 2 μg/mL, replicate 1, read-out: Pf_120h_%Growth_Rep1); 116% in test [2] (3D7, P. falciparum, 120 h, screen at 2 μg/mL, replicate 2, read-out: Pf_120h_%Growth_Rep2). Also, the results for the percent parasite growth at 2 µg/mL in test [3] (setting [10]) and in test [3] (setting [11]) were 132% and 90.1%, respectively.
Take `CCCCC/C=C/C=C\C=C/[C@H](O)[C@H](C)[C@H](C/C=C/[C@@H]1OC(=O)C=C[C@@H]1O)OS(=O)(=O)[O-].[Na+]` [Sultriecin]: the Pf_72h_%Growth_Rep1 in test [1] (P. falciparum, 72 h, parasite screen 2 μg/mL, % growth, replicate 1) came out at 90.74%. Moreover, the Pf_72h_%Growth_Rep2 in test [1] (P. falciparum, 72 h, parasite screen 2 μg/mL, % growth, replicate 2) is reported as 116.83%. In addition, the Pf_120h_%Growth_Rep1 in test [2] (P. falciparum, 120 h, parasite screen 2 μg/mL, % growth, replicate 1) stood at 87.78%. Besides, the Pf_120h_%Growth_Rep2 in test [2] (P. falciparum, 120 h, parasite screen 2 μg/mL, % growth, replicate 2) is 130.19%. The same molecule gave a Tg_72h_%Growth_Rep1 in test [3] (T. gondii, parasite screen 2 μg/mL, % growth, replicate 1) of 105.98%. Besides, in test [3] (T. gondii, parasite screen 2 μg/mL, % growth, replicate 2), the Tg_72h_%Growth_Rep2 worked out at 90.75%.
In the case of `C[C@@H](O)[C@H]1C(=O)N2C(C(=O)[O-])=C(SC3Cn4cnc[n+]4C3)[C@H](C)[C@H]12` (stereo partly drawn) [Biapenem], the activity at 2 µg/mL turned out to be 84.2% in test [1] (3D7, library screen at 2 μg/mL, 72 h, % growth, replicate 1, read-out: Pf_72h_%Growth_Rep1); 84.8% in test [1] (3D7, library screen at 2 μg/mL, 72 h, % growth, replicate 2, read-out: Pf_72h_%Growth_Rep2); 85.6% in test [2] (3D7, library screen at 2 μg/mL, 120 h, % growth, replicate 1, read-out: Pf_120h_%Growth_Rep1); 79.2% in test [2] (3D7, library screen at 2 μg/mL, 120 h, % growth, replicate 2, read-out: Pf_120h_%Growth_Rep2). Also, the percent parasite growth at 2 µg/mL in test [3] (library screen at 2 μg/mL, % growth, replicate 1, read-out: Tg_72h_%Growth_Rep1) was found to be 116%; in test [3] (library screen at 2 μg/mL, % growth, replicate 2, read-out: Tg_72h_%Growth_Rep2), 95.1%.
The molecule `CCCCCCCCCCCCCCCc1cc(O)cc(O)c1` [Adipostatin A] registered a Pf_72h_%Growth_Rep1 in test [1] (library screen at 2 μg/mL, 72 h, % growth, replicate 1) of 85.82%. Further, in test [1] (library screen at 2 μg/mL, 72 h, % growth, replicate 2), the Pf_72h_%Growth_Rep2 worked out at 88.98%. For the same molecule, in test [2] (library screen at 2 μg/mL, 120 h, % growth, replicate 1), the Pf_120h_%Growth_Rep1 was found to be 83.04%. The molecule also registered a Pf_120h_%Growth_Rep2 in test [2] (library screen at 2 μg/mL, 120 h, % growth, replicate 2) of 100.82%. For the same molecule, in test [3] (library screen at 2 μg/mL, % growth, replicate 1), the Tg_72h_%Growth_Rep1 was determined as 103.30%. Also, the Tg_72h_%Growth_Rep2 in test [3] (library screen at 2 μg/mL, % growth, replicate 2) was 96.65%.
Regarding `CO[C@@H]1[C@H](O)C[C@@H](O[C@@H]2C[C@H](Oc3cc4cc5c(c(O)c4c(O)c3C)C(=O)[C@@H](O[C@H]3C[C@@H](O[C@H]4C[C@@H](O[C@H]6C[C@](C)(O)[C@@H](OC(C)=O)[C@H](C)O6)[C@H](O)[C@@H](C)O4)[C@H](O)[C@@H](C)O3)[C@H]([C@H](OC)C(=O)[C@@H](O)[C@@H](C)O)C5)O[C@H](C)[C@@H]2OC(C)=O)O[C@@H]1C` [Chromomycin A3], the activity at 2 µg/mL in test [1] (3D7, 72 h, P. falciparum, 72 h, screen at 2 μg/mL, replicate 1, read-out: Pf_72h_%Growth_Rep1) is -1.98%; in test [1] (3D7, 72 h, P. falciparum, 72 h, screen at 2 μg/mL, replicate 2, read-out: Pf_72h_%Growth_Rep2) it was 0.17%; in test [2] (3D7, 120 h, P. falciparum, 120 h, screen at 2 μg/mL, replicate 1, read-out: Pf_120h_%Growth_Rep1), 2.76%; in test [2] (3D7, 120 h, P. falciparum, 120 h, screen at 2 μg/mL, replicate 2, read-out: Pf_120h_%Growth_Rep2) it was -4.9%. Also, the percent parasite growth at 2 µg/mL is 1.51% in test [3] (setting [10]) and 1.99% in test [3] (setting [11]).
As for `Cc1cc(O)c(O)c2oc(=O)c3c(O)cc(O)cc3c12` [BIA-H1558], in test [1] (setting [4]), the Pf_72h_%Growth_Rep1 worked out at 87.28%. In test [1] (setting [5]), this molecule displayed a Pf_72h_%Growth_Rep2 of 114.26%. In test [2] (setting [6]), this molecule had a Pf_120h_%Growth_Rep1 of 93.99%. In addition, the Pf_120h_%Growth_Rep2 in test [2] (setting [7]) is given as 107.81%. In addition, the Tg_72h_%Growth_Rep1 in test [3] (setting [8]) is 100.18%. Besides, the Tg_72h_%Growth_Rep2 in test [3] (setting [9]) came to 87.83%.
Consider Telomycin, for which the Pf_72h_%Growth_Rep1 in test [1] (P. falciparum, 72 h, screen at 2 μg/mL, replicate 1) was determined as 87.11%. Moreover, in test [1] (P. falciparum, 72 h, screen at 2 μg/mL, replicate 2), the Pf_72h_%Growth_Rep2 turned out to be 125.88%. This molecule also gave a Pf_120h_%Growth_Rep1 in test [2] (P. falciparum, 120 h, screen at 2 μg/mL, replicate 1) of 103.58%. The same molecule yielded a Pf_120h_%Growth_Rep2 in test [2] (P. falciparum, 120 h, screen at 2 μg/mL, replicate 2) of 79.40%. The molecule further came in with a Tg_72h_%Growth_Rep1 in test [3] (T. gondii, screen at 2 μg/mL, replicate 1) of 151.31%. The molecule further came in with a Tg_72h_%Growth_Rep2 in test [3] (T. gondii, screen at 2 μg/mL, replicate 2) of 89.83%.
